Here are results for six molecules from US20090209460A1, “COMPOSITIONS AND METHODS FOR TREATING OBESITY AND RELATED METABOLIC DISORDERS” (Amylin Pharmaceuticals, Inc., priority 2005, published 2009).

One data set has as its system NIH/Swiss mice. Nature of the data set: acute food intake assay, lean overnight-fasted NIH/Swiss mice, intraperitoneal injection. It is filed as in vivo, mouse. Conditions: for FI (60′, 200): % change relative to control, 60 min; for reduction of food intake: administered systemically (i.p. to mice), dose and time not stated; for Food Intake Inhibition: mouse assay, dose of 200 mg/kg, measured at 60 minutes. The procedure, abridged:
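Overnight-fasted lean female NIH/Swiss mice (8-24 weeks, group housed) received vehicle or peptide intraperitoneally at time 0, then pre-weighed standard chow. Food consumed was weighed at 30, 60 and 120 min and expressed as % change versus control.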

The nature of data set [1]: degradation in vitro in plasma, serial MS analyses. It is filed as in vitro ADME. The source says:
Doses at which we observed herein an absence of anorectic effect (in mice) were 1-2 orders of magnitude higher than the lower U8 dose for maximal hemodynamic effects in dogs (Sumi et al. 1987).

The nature of data set [2]: body weight and food intake in mice with diet induced obesity (mouse DIO), osmotic pump. The class given is in vivo. Here is the method:
The effect of FN38 and related compounds on body weight and food intake in obese subjects was investigated. Mice having diet induced obesity (DIO) were used. All in vivo tests were performed with peripheral injections of peptide. […] 4-week-old male C57BL/6 mice were group housed with water and a standard pelleted mouse chow diet available ad libitum, except as noted, and were maintained on a on a high fat diet (58% kcal from fat) for 4 weeks prior to the experiment. At the end of fattening period, osmotic pumps were implanted interscapularly under anesthesia. Mice received pumps continuously delivering vehicle (50% DMSO in water or saline) or polypeptide at the dose indicated. Food intake and body weight measurements were obtained weekly.

The nature of data set [3]: cumulative weight gain in rats with diet induced obesity (rat DIO), subcutaneous pump for seven days. It is filed as in vivo. The note with it: subcutaneously continuously by pump for seven days. Here is the method:
Both compounds were administered subcutaneously continuously by pump for seven days at the rate and dosage indicated.

Data set [4] can be described thus: brush border membrane (BBM) stability assay. Conditions: brush border membrane extract (e.g. kidney). The class given is in vitro ADME, human. Summed up: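 Peptides digested up to 5 h at 37 °C with human brush border membrane extract (e.g. kidney). Timepoints quenched with 50% ACN, 1% FA, centrifuged, intact peptide quantified by selected-ion mass spectrometry. Expressed as percent stable.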

The subject of a further data set is rats. Conditions: 10 μg ICV dose; cited from earlier work.
For data set [5], the system named is mice with diet induced obesity (mouse DIO). Nature of the data set: cumulative food intake in mouse DIO after IP injection (FIGS. 6 and 7). It is filed as in vivo. Conditions: injected IP at t=0; measured at 30, 60, 120 and 180 min. The method, then: The activities of the following compounds are shown: A, [MimicB36] FN38; B, [His37] FN38; C,
[His35] FN38; D, [Phe33] FN38; E, [Val33] FN38; F, Des-(Ser6,Lys7,Thr8,Gln9) FN38; G, Des-Val16,Val17-FN38; H, [Phe31] FN38; I, Des-(Val16,Val17,Phe24,Ala25,Ser26,Gln27) FN38; J, Des-(Phe1,Leu2,Phe3,His4)FN38; and K, Des-(Phe24,Ala25,Ser26,Gln27)-FN38. […] Points represent mean±sd of n=4 cages (3 mice/cage). Peptide was injected IP at t=0. Food was introduced immediately after injection and amount consumed measured at t=30, 60, 120, and 180 min. In the figure, * p<0.05 vs. vehicle control; ANOVA, Dunnett's test.

The mark [6] stands for this setting: percent compound remaining after a 5 hour incubation, human brush border membrane assay, read-out: hBBM.

Read-outs that look alike come from different tables or passages of the source. Residues, ends and D or L forms follow the SMILES beside them.

On to `CC(C)C[C@H](NC(=O)[C@H](Cc1ccccc1)NC(=O)[C@@H](N)Cc1ccc(O)cc1)C(=O)N[C@@H](Cc1ccccc1)C(=O)N[C@@H](CCCNC(=N)N)C(=O)N1CCC[C@H]1C(=O)N[C@@H](CCCNC(=N)N)C(=O)N[C@@H](CC(N)=O)C(N)=O` [Compound 163291, reference compound], for which the “activity in food intake assays” value in the data set on NIH/Swiss mice (doses between 100-1000 μg/kg (up to 900 nmol/kg)) was “inactive”. For the same molecule, in the data set on NIH/Swiss mice (food intake), the “FI (60′, 200)” value is listed as −75%. In addition, the “difference in potency between U-8 and rNMU-23” value with NIH/Swiss mice (food intake, mice) is reported as “at least 1000 fold”. For the same molecule, in data set [1], the “degradation in vitro in plasma” value is listed as “rapid degradation”.
In the case of `CC(C)C[C@H](NC(=O)[C@H](Cc1ccccc1)NC(=O)[C@H](Cc1ccccc1)NC(=O)CNC(=O)CNC(=O)[C@H](CO)NC(=O)[C@@H]1CCCN1C(=O)[C@H](C)NC(=O)[C@@H](NC(=O)[C@@H]1CCCN1C(=O)CNC(=O)[C@H](CCC(N)=O)NC(=O)[C@H](Cc1ccc(O)cc1)NC(=O)[C@H](CCC(=O)O)NC(=O)[C@H](CC(N)=O)NC(=O)[C@@H](NC(=O)[C@H](CCCCN)NC(=O)[C@@H](N)Cc1ccc(O)cc1)C(C)C)C(C)C)C(=O)N[C@@H](Cc1ccccc1)C(=O)N[C@@H](CCCNC(=N)N)C(=O)N1CCC[C@H]1C(=O)N[C@@H](CCCNC(=N)N)C(=O)N[C@@H](CC(N)=O)C(N)=O` [Compound 163293, reference compound] (H-YKVNEYQGPVAPSGGFFLFRPRN-NH2; N-terminus assumed), in the data set on NIH/Swiss mice, the “reduction of food intake” value is listed as “up to 66%”. Moreover, in the data set with NIH/Swiss mice (food intake over 30 min, mice), the “change in intake (effectiveness)” value was −60%. For the same molecule, the “FI (60′, 200)” value in the data set on NIH/Swiss mice (food intake) was −37.5%. For the same molecule, the ED50 (in general, the midpoint of the dose-response relation) at t = 60 in the data set on NIH/Swiss mice (food intake, t = 60) was determined as 0.017 mg/kg. Besides, the “ED50 for effect on food intake” value with NIH/Swiss mice (over 30 min, i.p., mice) came to 6.2 nmol/kg. For the same molecule, in data set [2] (75 nmol/kg/day), the “body weight gain and food intake in the DIO assay” value was “decreased body weight gain and food intake”. For the same molecule, the “d 14 BWt loss” value in data set [2] (mouse DIO, day 14) stood at 3.7%. Also, in data set [3], the “cumulative weight gained in rat DIO (FIG. 5)” value is recorded as “reduction of cumulative weight gained”.
Take `CC(C)C[C@H](NC(=O)[C@H](Cc1ccccc1)NC(=O)[C@H](Cc1ccc(O)cc1)NC(=O)CNC(=O)[C@H](CCCNC(=N)N)NC(=O)[C@H](CO)NC(=O)[C@H](CCC(N)=O)NC(=O)[C@H](CO)NC(=O)[C@H](C)NC(=O)[C@H](Cc1ccccc1)NC(=O)[C@@H]1CCCN1C(=O)[C@H](CO)NC(=O)[C@H](CCC(N)=O)NC(=O)[C@H](Cc1ccccc1)NC(=O)[C@H](CCC(=O)O)NC(=O)[C@H](CCC(=O)O)NC(=O)[C@H](CC(=O)O)NC(=O)[C@@H](NC(=O)[C@H](CCCNC(=N)N)NC(=O)[C@@H](N)Cc1ccccc1)C(C)C)C(=O)N[C@@H](Cc1ccccc1)C(=O)N[C@@H](CCCNC(=N)N)C(=O)N1CCC[C@H]1C(=O)N[C@@H](CCCNC(=N)N)C(=O)N[C@@H](CC(N)=O)C(N)=O` [Compound 165054, reference compound] (H-FRVDEEFQSPFASQSRGYFLFRPRN-NH2; N-terminus assumed): the “reduction of food intake” value in the data set on NIH/Swiss mice is listed as “at least 91%”. In addition, the “FI (60′, 200)” value in the data set on NIH/Swiss mice (food intake) is on record as −65%. The “potency administered peripherally versus centrally (i.c.v.), on a presumed concentration basis” value in the data set on NIH/Swiss mice (i.p. ED50 in mice compared with literature ICV dose in rats) is on record as approximately 300 fold. Moreover, the remaining at 5 h in data set [4] (percent of stable, human brush border membrane extracts, five hours, 37° C., read-out: BBM) was found to be 13%. The “reduction in food intake” value with rats is recorded as approximately 30%.
For the molecule `CC(C)C[C@H](NC(=O)[C@H](CCCCN)NC(=O)[C@H](CCC(N)=O)NC(=O)[C@@H](NC(=O)[C@H](CCCCN)NC(=O)[C@H](CO)NC(=O)[C@H](Cc1ccc(O)cc1)NC(=O)[C@H](Cc1c[nH]cn1)NC(=O)[C@H](Cc1ccccc1)NC(=O)[C@H](CC(C)C)NC(=O)[C@@H](N)Cc1ccccc1)[C@@H](C)O)C(=O)NCC(=O)N[C@@H](CCCCN)C(=O)N[C@@H](CO)C(=O)N[C@@H](CC(N)=O)C(=O)NCC(=O)N[C@@H](Cc1ccc(O)cc1)C(=O)N[C@@H](Cc1ccccc1)C(=O)N[C@@H](CC(C)C)C(=O)N[C@@H](Cc1ccccc1)C(=O)N[C@@H](CCCNC(=N)N)C(=O)N1CCC[C@H]1C(=O)N[C@@H](CCCNC(=N)N)C(=O)N[C@@H](CC(N)=O)C(N)=O` [Des-(Val16-Arg29)FN38] (H-FLFHYSKTQKLGKSNGYFLFRPRN-NH2; N-terminus assumed), the “Food Intake Inhibition” value in the data set on NIH/Swiss mice is reported as −42%. For the same molecule, in data set [4] (setting [6]), the remaining at 5 h is 91%. In data set [5], the “cumulative food intake in mouse DIO (FIGS. 6A, 6B, 7A, 7B)” value is “reduction of cumulative food intake”.
Taken in the same sequence, the figures for `CC(C)C[C@H](NC(=O)[C@H](CCCCN)NC(=O)[C@H](CCC(N)=O)NC(=O)[C@@H](NC(=O)[C@H](CCCCN)NC(=O)[C@H](CO)NC(=O)[C@H](Cc1ccc(O)cc1)NC(=O)[C@H](Cc1c[nH]cn1)NC(=O)[C@H](Cc1ccccc1)NC(=O)[C@H](CC(C)C)NC(=O)[C@@H](N)Cc1ccccc1)[C@@H](C)O)C(=O)NCC(=O)N[C@@H](CCCCN)C(=O)N[C@@H](CO)C(=O)N[C@@H](CC(N)=O)C(=O)N[C@@H](CO)C(=O)N[C@@H](CCCNC(=N)N)C(=O)NCC(=O)N[C@@H](Cc1ccc(O)cc1)C(=O)N[C@@H](Cc1ccccc1)C(=O)N[C@@H](CC(C)C)C(=O)N[C@@H](Cc1ccccc1)C(=O)N[C@@H](CCCNC(=N)N)C(=O)N1CCC[C@H]1C(=O)N[C@@H](CCCNC(=N)N)C(=O)N[C@@H](CC(N)=O)C(N)=O` [Des-(Val16-Gln27)FN38] (H-FLFHYSKTQKLGKSNSRGYFLFRPRN-NH2; N-terminus assumed) were −42%, 80% and “reduction of cumulative food intake”.
Taken in the same sequence, the figures for `CC(C)C[C@H](NC(=O)[C@H](CCCCN)NC(=O)[C@H](CCC(N)=O)NC(=O)[C@@H](NC(=O)[C@H](CCCCN)NC(=O)[C@H](CO)NC(=O)[C@H](Cc1ccc(O)cc1)NC(=O)[C@H](Cc1c[nH]cn1)NC(=O)[C@H](Cc1ccccc1)NC(=O)[C@H](CC(C)C)NC(=O)[C@@H](N)Cc1ccccc1)[C@@H](C)O)C(=O)NCC(=O)N[C@@H](CCCCN)C(=O)N[C@@H](CO)C(=O)N[C@@H](CC(N)=O)C(=O)N[C@H](C(=O)N[C@H](C(=O)N[C@@H](CCC(=O)O)C(=O)N[C@@H](CCC(=O)O)C(=O)N[C@@H](CC(C)C)C(=O)N[C@@H](CCC(N)=O)C(=O)N[C@@H](CO)C(=O)N1CCC[C@H]1C(=O)N[C@@H](Cc1ccccc1)C(=O)N[C@@H](C)C(=O)N[C@@H](CO)C(=O)N[C@@H](CCC(N)=O)C(=O)N[C@@H](CO)C(=O)N[C@@H](CCCNC(=N)N)C(=O)NCC(=O)N[C@@H](Cc1ccc(O)cc1)C(=O)N[C@@H](Cc1ccccc1)C(=O)N[C@@H](Cc1ccccc1)C(=O)N[C@@H](Cc1ccccc1)C(=O)N[C@@H](CCCNC(=N)N)C(=O)N1CCC[C@H]1C(=O)N[C@@H](CCCNC(=N)N)C(=O)N[C@@H](CC(N)=O)C(N)=O)C(C)C)C(C)C` [[Phe33]FN38] (H-FLFHYSKTQKLGKSNVVEELQSPFASQSRGYFFFRPRN-NH2; N-terminus assumed) were −32%, 67% and “either not active or weakly active”.
